In patent publication US6362226B1, “Modulation of in vivo glutamine and glycine levels in the treatment of autism” (Vanderbilt University, priority 1999, dated 2002):

Test system: autistic patients
Assay: Open-label dextromethorphan treatment of autistic patients B and F with elevated plasma glutamine and/or glycine, rated by treatment-blinded observers
Format: in vivo, human
From the text: Autistic patients were screened for elevated plasma levels of glutamine or glycine, or both. Five of 36 patients had elevated levels of either or both amino acids. One patient, “B”, had been diagnosed as having autism […] and 10 months. […] Further, B had elevated levels of glutamine in their cerebrospinal fluid, although their glycine levels were within the normal range. Their routine chemistry lab tests, including their urine organic acid profile, were normal. Patient “F” had persistent elevated glycine levels on multiple amino acid profiles which ranged from 324 to 439 μmol/L, where normal levels are from 120 to 315 μmol/L.
Both patients B and F were treated with dextromethorphan at 5 mg/kg body weight/day in the form of a cough and cold preparation sold under the registered trademark DELSYM® by McNeilLab, Inc. of Spring House, Pa., divided BID.
Example 1 discloses that 5/36 (14%) of children with autism have increased plasma levels of glutamine, glycine or both glutamine and glycine. In Example 1, an autistic patient with elevated glutamine and glycine and an autistic patient with glycine were treated with DM at 5 mg/kg body weight/day. […] The procedures of Example 1, however, were uncontrolled and open-label. In Example 2, treatment of children with autism with PB, SB or combinations of PB, SB and DM is systematically evaluated.

## COc1ccc2c(c1)[C@]13CCCC[C@@H]1[C@H](C2)N(C)CC3 [dextromethorphan]
Patients B and F
  response upon resumption of long-term dextromethorphan treatment: responded as before and have continued to respond
Patients B and F, 5 mg/kg body weight/day divided BID as DELSYM, teachers and therapists blinded to treatment
  expressive and receptive language skills, attention span and focus, motor planning and socialization with peers: significant improvement
Patients B and F, treatment-blinded observers, all areas previously improved
  behavior after withdrawal of dextromethorphan treatment: regression in all of these areas of behavior measurement
Two autistic patients, DM 5 mg/kg body weight/day, uncontrolled, open-label
  autistic behavior: clinical improvement
